PMC4522657, “Identification of a DYRK1A Inhibitor that Induces Degradation of the Target Kinase using Co-chaperone CDC37 fused with Luciferase nanoKAZ” (Scientific Reports, 2015)

Experiments:
Experiment in all cases: Kinase panel, CaNDY 1 µM
Format in all cases: biochemical
Details in all cases: CaNDY 1 µM relative to DMSO
ABL(T315I) = target: T1, ABL(T315I) (Homo sapiens, UniProt P00519, T315I)
T1 construct: purchased Carna Biosciences
In short: (§1)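 GST-tagged (N-term) full-length human kinases, baculovirus-expressed; 1% DMSO final; 1 h, RT; mobility shift; % inhibition vs no-inhibitor control from P/(P+S).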

AMPKα2/β1/γ1 = target: T2, AMPKα2/β1/γ1 (Homo sapiens, UniProt P54646)
T2 construct: purchased Carna Biosciences
In short: as §1

AurB = target: T3, AurB (Homo sapiens, UniProt Q96GD4)
T3 construct: purchased Carna Biosciences
T3 sequence (Q96GD4 whole entry): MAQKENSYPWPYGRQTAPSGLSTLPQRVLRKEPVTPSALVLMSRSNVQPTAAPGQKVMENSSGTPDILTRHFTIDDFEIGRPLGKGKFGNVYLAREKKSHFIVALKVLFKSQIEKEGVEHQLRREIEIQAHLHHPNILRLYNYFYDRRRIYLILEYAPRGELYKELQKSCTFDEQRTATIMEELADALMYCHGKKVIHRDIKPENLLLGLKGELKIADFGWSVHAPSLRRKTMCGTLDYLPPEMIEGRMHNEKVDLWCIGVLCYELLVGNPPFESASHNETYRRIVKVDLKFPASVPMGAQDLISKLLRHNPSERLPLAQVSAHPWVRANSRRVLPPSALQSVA
T3 sequence (Q9NQS7 803-918 partner limits assumed): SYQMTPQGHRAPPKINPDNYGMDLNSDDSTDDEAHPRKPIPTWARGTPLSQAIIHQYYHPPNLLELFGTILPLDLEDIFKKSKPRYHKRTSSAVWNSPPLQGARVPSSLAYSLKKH
In short: as §1

BRAF(V600E)_Cascade = target: T4, BRAF(V600E)_Cascade (Homo sapiens, UniProt P15056, V600E)
T4 construct: purchased Carna Biosciences
T4 sequence (P15056 whole entry V600E): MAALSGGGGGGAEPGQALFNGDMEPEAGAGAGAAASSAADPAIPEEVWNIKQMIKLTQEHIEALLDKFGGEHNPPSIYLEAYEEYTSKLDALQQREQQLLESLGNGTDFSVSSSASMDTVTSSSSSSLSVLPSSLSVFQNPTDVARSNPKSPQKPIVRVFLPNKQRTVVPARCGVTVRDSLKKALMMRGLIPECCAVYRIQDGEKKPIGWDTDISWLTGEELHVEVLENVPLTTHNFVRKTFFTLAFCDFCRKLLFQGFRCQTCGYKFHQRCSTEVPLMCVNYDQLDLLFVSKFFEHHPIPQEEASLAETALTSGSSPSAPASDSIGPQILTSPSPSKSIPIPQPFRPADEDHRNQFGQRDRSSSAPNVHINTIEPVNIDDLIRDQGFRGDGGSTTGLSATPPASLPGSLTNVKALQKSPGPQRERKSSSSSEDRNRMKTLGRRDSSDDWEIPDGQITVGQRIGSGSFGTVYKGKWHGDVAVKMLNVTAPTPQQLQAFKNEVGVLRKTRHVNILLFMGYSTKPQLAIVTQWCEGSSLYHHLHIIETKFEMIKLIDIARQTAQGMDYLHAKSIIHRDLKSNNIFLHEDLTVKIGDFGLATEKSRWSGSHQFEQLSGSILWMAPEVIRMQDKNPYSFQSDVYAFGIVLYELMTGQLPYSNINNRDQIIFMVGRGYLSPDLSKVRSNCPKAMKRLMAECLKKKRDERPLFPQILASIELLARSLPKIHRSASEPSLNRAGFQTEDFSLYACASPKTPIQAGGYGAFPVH
In short: as §1

BRK = target: T5, BRK (Homo sapiens, UniProt Q13882)
T5 construct: purchased Carna Biosciences
In short: as §1

BRSK1 = target: T6, BRSK1 (Homo sapiens, UniProt Q8TDC3)
T6 construct: purchased Carna Biosciences
In short: as §1

CDK2/CycA2 = target: T7, CDK2/CycA2 (Homo sapiens, UniProt P24941)
T7 construct: purchased Carna Biosciences
In short: as §1

CK1α = target: T8, CK1α (Homo sapiens, UniProt P48729)
T8 construct: purchased Carna Biosciences
T8 sequence (P48729 whole entry): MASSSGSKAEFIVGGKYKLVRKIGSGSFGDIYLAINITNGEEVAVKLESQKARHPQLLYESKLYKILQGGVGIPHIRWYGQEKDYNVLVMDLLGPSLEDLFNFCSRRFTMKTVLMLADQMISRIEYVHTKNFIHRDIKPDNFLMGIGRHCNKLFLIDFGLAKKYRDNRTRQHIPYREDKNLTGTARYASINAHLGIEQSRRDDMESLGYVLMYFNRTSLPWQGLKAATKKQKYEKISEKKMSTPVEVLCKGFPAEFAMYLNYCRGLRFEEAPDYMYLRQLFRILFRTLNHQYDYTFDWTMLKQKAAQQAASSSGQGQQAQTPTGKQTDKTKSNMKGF
In short: as §1

CK1γ1 = target: T9, CK1γ1 (Homo sapiens, UniProt Q9HCP0)
T9 construct: purchased Carna Biosciences
In short: as §1

CaMK2α = target: T10, CaMK2α (Homo sapiens, UniProt Q9UQM7)
T10 construct: purchased Carna Biosciences
In short: as §1

DCAMKL2 = target: T11, DCAMKL2 (Homo sapiens, UniProt Q8N568)
T11 construct: purchased Carna Biosciences
In short: as §1

EML4-ALK = target: T12, EML4-ALK (Homo sapiens, UniProt Q9UM73)
T12 construct: purchased Carna Biosciences
In short: as §1

EPHA1 = target: T13, EPHA1 (Homo sapiens, UniProt P21709)
T13 construct: purchased Carna Biosciences
In short: as §1

EPHA7 = target: T14, EPHA7 (Homo sapiens, UniProt Q15375)
T14 construct: purchased Carna Biosciences
In short: as §1

FAK = target: T15, FAK (Homo sapiens, UniProt Q05397)
T15 construct: purchased Carna Biosciences
In short: as §1

FGR = target: T16, FGR (Homo sapiens, UniProt P09769)
T16 construct: purchased Carna Biosciences
In short: as §1

FMS = target: T17, FMS (Homo sapiens, UniProt P07333)
T17 construct: purchased Carna Biosciences
In short: as §1

IGF1R = target: T18, IGF1R (Homo sapiens, UniProt P08069)
T18 construct: purchased Carna Biosciences
In short: as §1

LTK = target: T19, LTK (Homo sapiens, UniProt P29376)
T19 construct: purchased Carna Biosciences
In short: as §1

MARK1 = target: T20, MARK1 (Homo sapiens, UniProt Q9P0L2)
T20 construct: purchased Carna Biosciences
In short: as §1

MARK4 = target: T21, MARK4 (Homo sapiens, UniProt Q96L34)
T21 construct: purchased Carna Biosciences
In short: as §1

MGC42105 = target: T22, MGC42105 (Homo sapiens, UniProt Q8IY84)
T22 construct: purchased Carna Biosciences
T22 sequence (Q8IY84 whole entry): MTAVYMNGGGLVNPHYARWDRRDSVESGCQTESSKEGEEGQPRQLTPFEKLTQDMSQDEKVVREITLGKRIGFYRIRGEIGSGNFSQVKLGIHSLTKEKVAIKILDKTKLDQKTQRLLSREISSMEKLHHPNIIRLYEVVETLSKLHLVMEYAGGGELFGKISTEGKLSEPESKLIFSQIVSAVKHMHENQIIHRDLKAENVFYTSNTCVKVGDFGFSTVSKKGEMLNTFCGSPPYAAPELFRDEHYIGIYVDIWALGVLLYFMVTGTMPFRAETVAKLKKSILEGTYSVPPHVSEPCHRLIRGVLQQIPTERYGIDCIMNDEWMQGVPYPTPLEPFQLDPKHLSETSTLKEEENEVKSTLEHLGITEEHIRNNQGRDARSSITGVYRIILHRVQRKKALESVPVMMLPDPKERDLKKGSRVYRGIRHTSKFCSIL
In short: as §1

MNK1 = target: T23, MNK1 (Homo sapiens, UniProt Q9BUB5)
T23 construct: purchased Carna Biosciences
In short: as §1

NDR1 = target: T24, NDR1 (Homo sapiens, UniProt Q15208)
T24 construct: purchased Carna Biosciences
In short: as §1

PEK = target: T25, PEK (Homo sapiens, UniProt Q9NZJ5)
T25 construct: purchased Carna Biosciences
T25 sequence (Q9NZJ5 30-1116): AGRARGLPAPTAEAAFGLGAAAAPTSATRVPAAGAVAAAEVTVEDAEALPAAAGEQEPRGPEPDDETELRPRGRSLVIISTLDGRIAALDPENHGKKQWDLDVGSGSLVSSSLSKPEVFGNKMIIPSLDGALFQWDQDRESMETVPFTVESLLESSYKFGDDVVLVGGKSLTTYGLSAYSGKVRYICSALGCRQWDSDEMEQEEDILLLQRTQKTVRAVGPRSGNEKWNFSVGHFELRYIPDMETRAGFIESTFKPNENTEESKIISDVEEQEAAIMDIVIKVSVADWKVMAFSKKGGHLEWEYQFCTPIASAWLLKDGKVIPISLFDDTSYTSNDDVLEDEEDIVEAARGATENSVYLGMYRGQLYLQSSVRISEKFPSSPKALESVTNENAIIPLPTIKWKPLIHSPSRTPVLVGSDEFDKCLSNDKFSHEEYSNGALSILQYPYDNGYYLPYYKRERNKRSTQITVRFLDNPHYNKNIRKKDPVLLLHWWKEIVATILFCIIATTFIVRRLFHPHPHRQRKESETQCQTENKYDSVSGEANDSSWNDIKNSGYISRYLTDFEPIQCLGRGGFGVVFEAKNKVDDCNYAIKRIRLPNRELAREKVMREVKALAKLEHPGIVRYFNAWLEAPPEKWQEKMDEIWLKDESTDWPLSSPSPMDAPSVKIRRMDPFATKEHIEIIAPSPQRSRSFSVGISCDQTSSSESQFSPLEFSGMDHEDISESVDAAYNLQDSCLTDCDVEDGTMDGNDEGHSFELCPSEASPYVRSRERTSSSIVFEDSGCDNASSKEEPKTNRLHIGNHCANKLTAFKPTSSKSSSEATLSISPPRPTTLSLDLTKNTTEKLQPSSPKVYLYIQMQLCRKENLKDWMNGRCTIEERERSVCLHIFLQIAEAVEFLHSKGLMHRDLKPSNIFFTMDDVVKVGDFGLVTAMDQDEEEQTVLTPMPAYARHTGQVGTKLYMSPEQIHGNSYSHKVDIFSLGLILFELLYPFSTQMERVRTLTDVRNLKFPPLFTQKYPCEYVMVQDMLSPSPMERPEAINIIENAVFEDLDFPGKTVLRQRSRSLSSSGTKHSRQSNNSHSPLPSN
In short: as §1

PGK = target: T26, PGK (Homo sapiens, UniProt Q13976)
T26 construct: purchased Carna Biosciences
In short: as §1

PKCδ = target: T27, PKCδ (Homo sapiens, UniProt Q05655)
T27 construct: purchased Carna Biosciences
In short: as §1

PKCθ = target: T28, PKCθ (Homo sapiens, UniProt Q04759)
T28 construct: purchased Carna Biosciences
In short: as §1

PKD2 = target: T29, PKD2 (Homo sapiens, UniProt Q9BZL6)
T29 construct: purchased Carna Biosciences
In short: as §1

PKD3 = target: T30, PKD3 (Homo sapiens, UniProt O94806)
T30 construct: purchased Carna Biosciences
In short: as §1

PKR = target: T31, PKR (Homo sapiens, UniProt P19525)
T31 construct: purchased Carna Biosciences
In short: as §1

RSK3 = target: T32, RSK3 (Homo sapiens, UniProt Q15349)
T32 construct: purchased Carna Biosciences
T32 sequence (Q15349 whole entry): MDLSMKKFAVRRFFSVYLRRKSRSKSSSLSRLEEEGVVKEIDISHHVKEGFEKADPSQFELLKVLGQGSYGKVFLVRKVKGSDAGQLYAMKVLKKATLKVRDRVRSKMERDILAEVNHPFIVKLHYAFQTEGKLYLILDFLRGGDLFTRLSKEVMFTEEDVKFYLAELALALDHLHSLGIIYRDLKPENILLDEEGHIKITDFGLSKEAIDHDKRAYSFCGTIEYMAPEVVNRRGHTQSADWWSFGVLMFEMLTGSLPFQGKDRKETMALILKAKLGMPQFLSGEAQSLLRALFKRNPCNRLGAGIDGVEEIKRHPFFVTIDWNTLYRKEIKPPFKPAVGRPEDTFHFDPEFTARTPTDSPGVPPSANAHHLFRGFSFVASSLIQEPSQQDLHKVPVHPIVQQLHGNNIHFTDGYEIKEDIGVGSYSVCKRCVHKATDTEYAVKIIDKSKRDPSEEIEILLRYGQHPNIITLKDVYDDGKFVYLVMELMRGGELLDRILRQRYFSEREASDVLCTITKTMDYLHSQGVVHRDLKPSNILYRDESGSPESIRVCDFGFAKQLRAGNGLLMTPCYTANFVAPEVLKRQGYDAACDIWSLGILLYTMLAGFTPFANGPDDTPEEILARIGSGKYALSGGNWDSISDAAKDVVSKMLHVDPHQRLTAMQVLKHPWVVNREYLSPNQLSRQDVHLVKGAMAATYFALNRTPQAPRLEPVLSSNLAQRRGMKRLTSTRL
In short: as §1

SRC = target: T33, SRC (Homo sapiens, UniProt P12931)
T33 construct: purchased Carna Biosciences
T33 sequence (P12931 whole entry): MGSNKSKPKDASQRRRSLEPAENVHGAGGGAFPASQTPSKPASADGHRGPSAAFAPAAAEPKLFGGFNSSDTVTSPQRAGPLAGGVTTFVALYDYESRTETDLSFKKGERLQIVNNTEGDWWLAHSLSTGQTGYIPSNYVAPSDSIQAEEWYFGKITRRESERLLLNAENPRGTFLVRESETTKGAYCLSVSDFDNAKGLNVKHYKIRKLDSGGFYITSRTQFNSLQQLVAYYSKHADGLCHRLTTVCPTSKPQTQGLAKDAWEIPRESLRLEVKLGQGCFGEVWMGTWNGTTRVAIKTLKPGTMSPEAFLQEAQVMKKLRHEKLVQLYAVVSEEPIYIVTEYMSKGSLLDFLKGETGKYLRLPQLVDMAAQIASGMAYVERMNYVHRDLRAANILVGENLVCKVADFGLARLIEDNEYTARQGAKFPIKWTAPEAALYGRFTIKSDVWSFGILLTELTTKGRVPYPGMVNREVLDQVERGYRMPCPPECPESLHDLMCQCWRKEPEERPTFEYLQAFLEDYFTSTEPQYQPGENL
In short: as §1

TYRO3 = target: T34, TYRO3 (Homo sapiens, UniProt Q06418)
T34 construct: purchased Carna Biosciences
In short: as §1

p38δ = target: T35, p38δ (Homo sapiens, UniProt O15264)
T35 construct: purchased Carna Biosciences
In short: as §1

skMLCK = target: T36, skMLCK (Homo sapiens, UniProt Q9H1R3)
T36 construct: purchased Carna Biosciences
T36 sequence (Q9H1R3 whole entry): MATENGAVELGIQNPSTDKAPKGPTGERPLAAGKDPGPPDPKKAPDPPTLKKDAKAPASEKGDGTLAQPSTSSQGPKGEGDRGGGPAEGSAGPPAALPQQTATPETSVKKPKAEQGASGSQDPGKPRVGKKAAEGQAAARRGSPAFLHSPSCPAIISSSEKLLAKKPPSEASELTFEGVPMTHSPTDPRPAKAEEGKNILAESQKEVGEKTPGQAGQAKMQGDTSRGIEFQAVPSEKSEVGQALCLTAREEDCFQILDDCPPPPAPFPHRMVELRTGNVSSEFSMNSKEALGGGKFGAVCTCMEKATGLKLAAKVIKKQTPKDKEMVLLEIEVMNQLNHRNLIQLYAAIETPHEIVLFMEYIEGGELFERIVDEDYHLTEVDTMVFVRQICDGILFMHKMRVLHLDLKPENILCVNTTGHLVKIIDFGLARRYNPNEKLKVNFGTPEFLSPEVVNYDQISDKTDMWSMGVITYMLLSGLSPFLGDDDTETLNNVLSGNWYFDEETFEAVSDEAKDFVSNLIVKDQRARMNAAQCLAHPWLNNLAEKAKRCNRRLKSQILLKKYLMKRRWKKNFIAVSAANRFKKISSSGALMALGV
In short: as §1

## [H]/N=C1/NC(=O)C(=Cc2ccc3c(c2)CCO3)S1 [CaNDY, (Z)-5-[(2,3-dihydrobenzofuran-5-yl)methylene]-2-iminothiazolidin-4-one]
ABL(T315I)
  remaining activity at 1 µM: 97%
AMPKα2/β1/γ1
  remaining activity at 1 µM: 97.5%
AurB
  remaining activity at 1 µM: 95.1%
BRAF(V600E)_Cascade
  remaining activity at 1 µM: 105%
BRK
  remaining activity at 1 µM: 95.4%
BRSK1
  remaining activity at 1 µM: 97.3%
CDK2/CycA2
  %Activity: 86.3%
CK1α
  remaining activity at 1 µM: 73.6%
CK1γ1
  %Activity: 83.4%
CaMK2α
  remaining activity at 1 µM: 104%
DCAMKL2
  remaining activity at 1 µM: 102%
EML4-ALK
  remaining activity at 1 µM: 99.2%
EPHA1
  remaining activity at 1 µM: 95.5%
EPHA7
  remaining activity at 1 µM: 97.6%
FAK
  remaining activity at 1 µM: 98.5%
FGR
  remaining activity at 1 µM: 102%
FMS
  remaining activity at 1 µM: 101%
IGF1R
  remaining activity at 1 µM: 101%
LTK
  remaining activity at 1 µM: 96.9%
MARK1
  remaining activity at 1 µM: 94.4%
MARK4
  %Activity: 94.3%
MGC42105
  remaining activity at 1 µM: 102%
MNK1
  remaining activity at 1 µM: 94.6%
NDR1
  remaining activity at 1 µM: 91.8%
PEK
  remaining activity at 1 µM: 90.4%
PGK
  remaining activity at 1 µM: 92.8%
PKCδ
  remaining activity at 1 µM: 74.1%
PKCθ
  remaining activity at 1 µM: 74.9%
PKD2
  remaining activity at 1 µM: 83.3%
PKD3
  remaining activity at 1 µM: 85.9%
PKR
  %Activity: 95.4%
RSK3
  remaining activity at 1 µM: 91.4%
SRC
  remaining activity at 1 µM: 102%
TYRO3
  remaining activity at 1 µM: 104%
p38δ
  remaining activity at 1 µM: 74.8%
skMLCK
  remaining activity at 1 µM: 96.2%
